Results from paper PMC7118906, “Esculetin Inhibits Cancer Cell Glycolysis by Binding Tumor PGK2, GPD2, and GPI” (Frontiers in Pharmacology, 2020).

How the values were obtained:
Format in all cases: binding
[1] = molecular target: glucose-6-phosphate isomerase (GPI) (Homo sapiens, UniProt P06744); assay: microscale thermophoresis with labeled purchased protein (Abcam ab208311)
[2] = molecular target: T1, glycerol-3-phosphate dehydrogenase (GPD2) (Homo sapiens, UniProt P43304); assay: microscale thermophoresis with labeled purchased protein (Abcam ab153790)
T1 sequence (P43304 43-727): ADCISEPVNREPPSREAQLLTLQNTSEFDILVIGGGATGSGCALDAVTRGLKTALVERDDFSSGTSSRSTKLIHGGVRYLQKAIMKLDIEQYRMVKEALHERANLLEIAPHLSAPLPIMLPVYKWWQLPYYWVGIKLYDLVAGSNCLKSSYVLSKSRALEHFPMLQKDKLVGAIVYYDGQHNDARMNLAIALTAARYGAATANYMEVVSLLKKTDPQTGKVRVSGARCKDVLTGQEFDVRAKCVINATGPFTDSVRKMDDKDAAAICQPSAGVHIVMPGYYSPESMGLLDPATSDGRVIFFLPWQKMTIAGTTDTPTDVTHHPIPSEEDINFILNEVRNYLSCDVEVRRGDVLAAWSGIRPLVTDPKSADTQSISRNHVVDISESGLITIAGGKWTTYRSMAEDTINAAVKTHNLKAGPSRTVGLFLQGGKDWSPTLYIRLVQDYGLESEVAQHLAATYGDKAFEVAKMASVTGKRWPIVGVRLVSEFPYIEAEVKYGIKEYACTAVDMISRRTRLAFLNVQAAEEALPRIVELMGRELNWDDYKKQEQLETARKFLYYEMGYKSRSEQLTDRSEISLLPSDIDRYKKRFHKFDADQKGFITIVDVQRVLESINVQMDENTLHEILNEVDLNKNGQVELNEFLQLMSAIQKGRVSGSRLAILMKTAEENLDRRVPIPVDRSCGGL

[3] = molecular target: T2, phosphoglycerate kinase 2 (PGK2) (Homo sapiens, UniProt P07205); assay: microscale thermophoresis with labeled purchased protein (Abcam ab123166)
T2 sequence (P07205 2-417): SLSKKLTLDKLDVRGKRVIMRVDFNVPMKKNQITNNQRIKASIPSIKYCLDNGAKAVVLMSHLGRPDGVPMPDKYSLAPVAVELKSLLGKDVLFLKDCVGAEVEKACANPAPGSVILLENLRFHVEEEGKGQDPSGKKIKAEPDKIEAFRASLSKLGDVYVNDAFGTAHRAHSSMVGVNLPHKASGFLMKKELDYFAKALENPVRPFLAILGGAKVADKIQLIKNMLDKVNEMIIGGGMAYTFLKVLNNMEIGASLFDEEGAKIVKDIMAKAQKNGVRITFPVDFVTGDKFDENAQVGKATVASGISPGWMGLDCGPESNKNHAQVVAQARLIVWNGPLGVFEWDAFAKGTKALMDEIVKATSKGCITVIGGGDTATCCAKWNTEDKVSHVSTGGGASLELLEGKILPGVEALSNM

## O=c1ccc2cc(O)c(O)cc2o1 [Esculetin]
[1]
  Kd: 127 ± 22.4 nM
[2]
  Kd: 666 ± 196 nM
[3]
  Kd: 161 ± 63.3 nM
